ChEMBL document CHEMBL1201862, “PubChem BioAssay data set” (2004)
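Each compound was tested at five concentrations against cells in 96-well plates for 48 hours. GI50 marks 50% less growth.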 Active and inactive are the calls of the source. Cut-off read from the data, not from the text of the source: active = GI50 up to about 1.1 µM and inactive = higher.

Key:
Test in all cases: inhibition of tumour cell growth, NCI panel, 48 h
A549 = test system: A549
BT-549 = test system: BT-549
CAKI-1 = test system: CAKI-1
COLO 205 = test system: COLO 205
DU-145 = test system: DU-145
HCT-116 = test system: HCT-116
HOP-92 = test system: HOP-92
HT-29 = test system: HT-29
KM12 = test system: KM12
LOX IMVI = test system: LOX IMVI
M14 = test system: M14
MCF7 = test system: MCF7
MDA-MB-231 = test system: MDA-MB-231
Malme-3M = test system: Malme-3M
NCI-H226 = test system: NCI-H226
NCI-H23 = test system: NCI-H23
OVCAR-5 = test system: OVCAR-5
PC-3 = test system: PC-3
SF-268 = test system: SF-268
SF-539 = test system: SF-539

Measured: GI50

NCC(O)CN.Oc1c(Cl)c(Cl)c(Cl)c(Cl)c1Cl
inactive: A549 18.7 µM | BT-549 24 µM | CAKI-1 31.1 µM | COLO 205 21 µM | DU-145 31.6 µM | HCT-116 18.2 µM | HOP-92 20.7 µM | HT-29 17.8 µM | KM12 20.2 µM | LOX IMVI 17.3 µM | M14 19.7 µM | MCF7 32.9 µM | MDA-MB-231 20.2 µM | Malme-3M 17.5 µM | NCI-H226 18 µM | NCI-H23 16.9 µM | OVCAR-5 18 µM | PC-3 22 µM | SF-268 29.2 µM | SF-539 24.4 µM

Cc1cccc(C(=O)O)c1CC1NCCC2c3ccccc3NC12 (stereo not given)
inactive: A549 > 100 µM | BT-549 > 100 µM | CAKI-1 > 100 µM | COLO 205 > 100 µM | DU-145 > 100 µM | HCT-116 > 100 µM | HOP-92 > 100 µM | HT-29 > 100 µM | KM12 > 100 µM | LOX IMVI > 100 µM | M14 > 100 µM | MCF7 > 100 µM | MDA-MB-231 > 100 µM | Malme-3M > 100 µM | NCI-H226 > 100 µM | NCI-H23 > 100 µM | OVCAR-5 > 100 µM | PC-3 > 100 µM | SF-268 > 100 µM | SF-539 > 100 µM

COc1cc(C[C@H]2C(=O)OC[C@@H]2Cc2ccc(OC)c(OC)c2)cc(OC)c1
inactive: A549 74.8 µM | BT-549 16.8 µM | CAKI-1 > 100 µM | COLO 205 89.3 µM | DU-145 > 100 µM | HCT-116 34.7 µM | HOP-92 92.9 µM | HT-29 33.2 µM | KM12 51.6 µM | LOX IMVI 18.5 µM | M14 93.8 µM | MCF7 34.2 µM | MDA-MB-231 93.3 µM | Malme-3M 55.6 µM | NCI-H226 > 100 µM | NCI-H23 39.4 µM | OVCAR-5 > 100 µM | PC-3 33 µM | SF-268 > 100 µM | SF-539 > 100 µM

COC(=O)c1c(O)ccc2c1C1(Cc3ccccc3C1=O)C(O)O2 (stereo not given)
inactive: A549 20.6 µM | BT-549 5.09 µM | CAKI-1 16.1 µM | COLO 205 35.6 µM | DU-145 24.4 µM | HCT-116 15.6 µM | HOP-92 16.6 µM | HT-29 43.2 µM | KM12 25.4 µM | LOX IMVI 19.5 µM | M14 17.3 µM | MCF7 12.6 µM | MDA-MB-231 17.3 µM | Malme-3M 21.7 µM | NCI-H226 9.79 µM | NCI-H23 33.2 µM | OVCAR-5 17.5 µM | PC-3 17.2 µM | SF-268 15.6 µM | SF-539 20.1 µM

CCOc1cc(NC(C)=O)ccc1C(=O)NN1C(=O)C(Cl)C1c1ccc(O)c(OC)c1 (stereo not given)
inactive: A549 16.7 µM | BT-549 8.83 µM | CAKI-1 16.5 µM | COLO 205 15.6 µM | DU-145 15.6 µM | HCT-116 18.2 µM | HOP-92 16.4 µM | HT-29 16.3 µM | KM12 17.6 µM | LOX IMVI 2.17 µM | M14 11.8 µM | MCF7 13.8 µM | MDA-MB-231 13.3 µM | Malme-3M 8 µM | NCI-H226 10.2 µM | NCI-H23 11.7 µM | OVCAR-5 19.1 µM | PC-3 14.1 µM | SF-268 14.7 µM | SF-539 11.4 µM

CC(=O)N1C2=CCCC2(C)c2ccccc21 (stereo not given)
inactive: A549 37.7 µM | BT-549 > 100 µM | CAKI-1 > 100 µM | COLO 205 57.9 µM | DU-145 > 100 µM | HCT-116 37.1 µM | HOP-92 26.9 µM | HT-29 63.5 µM | KM12 64.9 µM | LOX IMVI > 100 µM | M14 > 100 µM | MCF7 > 100 µM | MDA-MB-231 > 100 µM | Malme-3M 67.5 µM | NCI-H226 > 100 µM | NCI-H23 86.9 µM | OVCAR-5 > 100 µM | PC-3 52.4 µM | SF-268 > 100 µM | SF-539 > 100 µM

N#Cc1c(-c2ccccc2)c2c([nH]c1=O)-c1cc([N+](=O)[O-])ccc1CCC2
inactive: A549 30.3 µM | BT-549 17.4 µM | CAKI-1 41.3 µM | COLO 205 26.9 µM | DU-145 25.5 µM | HCT-116 30.3 µM | HOP-92 16.4 µM | HT-29 34.8 µM | KM12 32.9 µM | LOX IMVI 25.5 µM | M14 33.1 µM | MCF7 27.7 µM | MDA-MB-231 51.8 µM | Malme-3M 51.8 µM | NCI-H226 27.1 µM | NCI-H23 25.2 µM | OVCAR-5 83.4 µM | PC-3 39.7 µM | SF-268 26.6 µM | SF-539 27.7 µM

CCCN1C(=O)CCC2=C1CCc1c2ccc(Cl)c1Cl
inactive: A549 27.2 µM | BT-549 64.4 µM | CAKI-1 31.6 µM | COLO 205 51.9 µM | DU-145 5.19 µM | HCT-116 27.7 µM | HOP-92 21.8 µM | HT-29 34.8 µM | KM12 38 µM | LOX IMVI 25.6 µM | M14 31.9 µM | MCF7 42.1 µM | MDA-MB-231 16.8 µM | Malme-3M 61.1 µM | NCI-H226 60.5 µM | NCI-H23 29.4 µM | OVCAR-5 8.41 µM | PC-3 27.3 µM | SF-268 27 µM | SF-539 25.9 µM

C[C@]1(CO)[C@H]2CC[C@@]34C=C[C@@](CO)(CC[C@H]3[C@]2(C)CC[C@H]1O)C4
inactive: A549 > 100 µM | BT-549 56.2 µM | CAKI-1 30.9 µM | COLO 205 26.4 µM | DU-145 42.2 µM | HCT-116 56.9 µM | HOP-92 > 100 µM | HT-29 > 100 µM | KM12 38.1 µM | LOX IMVI 48.4 µM | M14 73.6 µM | MCF7 59.4 µM | MDA-MB-231 28.2 µM | Malme-3M 20.5 µM | NCI-H226 > 100 µM | NCI-H23 40.4 µM | OVCAR-5 > 100 µM | PC-3 44.3 µM | SF-268 47.3 µM | SF-539 96.2 µM

O=C(c1cc(Cl)cc(Cl)c1)N1CCN(C(=O)c2cc(Cl)cc(Cl)c2)C1=S
inactive: A549 17.7 µM | BT-549 24.9 µM | CAKI-1 11.9 µM | COLO 205 15.9 µM | DU-145 9.18 µM | HCT-116 16.4 µM | HOP-92 6.65 µM | HT-29 20.2 µM | KM12 11.7 µM | LOX IMVI 3.31 µM | M14 13.2 µM | MCF7 3.08 µM | MDA-MB-231 15.7 µM | Malme-3M 11.6 µM | NCI-H226 23.7 µM | NCI-H23 17.4 µM | OVCAR-5 20.6 µM | PC-3 13.9 µM | SF-268 13.1 µM | SF-539 7.28 µM
